In ChEMBL document CHEMBL1136443, “Structure-activity relationship of benzo[b]thiophene-2-sulfonamide derivatives as novel human chymase inhibitors” (Bioorg Med Chem Lett, 2003):

What was measured:
Chymase [1] = molecular target: T1, Chymase (Homo sapiens, UniProt P23946); experiment: In vitro inhibitory activity against human chymase; NI Indicates no inhibition at 10 uM
T1 sequence (P23946 whole entry): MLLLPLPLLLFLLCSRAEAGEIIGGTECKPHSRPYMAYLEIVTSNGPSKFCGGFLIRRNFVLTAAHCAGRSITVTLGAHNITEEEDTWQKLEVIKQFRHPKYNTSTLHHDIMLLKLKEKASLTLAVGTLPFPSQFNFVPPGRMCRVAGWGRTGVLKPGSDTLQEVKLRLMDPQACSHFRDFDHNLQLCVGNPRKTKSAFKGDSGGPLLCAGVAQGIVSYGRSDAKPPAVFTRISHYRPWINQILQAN

Chymase [2] = molecular target: T1, Chymase; experiment: In vitro inhibitory activity against human chymase
Rattus norvegicus = species: Rattus norvegicus; experiment: Percentage of compound present in rat plasma after incubation for 60 min at 37 degree C; assay type: functional, organism-based
[3] = In vitro inhibitory activity against human elastase
Cathepsin G = molecular target: T2, Cathepsin G (Homo sapiens, UniProt P08311); experiment: In vitro inhibitory activity against human cathepsin G
T2 sequence (P08311 whole entry): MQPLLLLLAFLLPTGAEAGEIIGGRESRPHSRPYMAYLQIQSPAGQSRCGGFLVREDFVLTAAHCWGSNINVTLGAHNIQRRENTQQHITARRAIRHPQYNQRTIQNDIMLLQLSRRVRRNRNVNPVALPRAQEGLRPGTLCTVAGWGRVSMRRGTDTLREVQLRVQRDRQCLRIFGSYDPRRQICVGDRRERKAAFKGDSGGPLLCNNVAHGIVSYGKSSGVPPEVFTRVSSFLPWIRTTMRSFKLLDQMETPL

Cc1c(S(=O)(=O)Nc2ccc(C#N)cc2)sc2ccc(Cl)cc12
IC50 (Chymase [1]): No inhibition

Cc1c(S(=O)(=O)Nc2ccc(C(N)=O)cc2S(C)(=O)=O)sc2ccc(F)cc12
IC50 (Chymase [2]): > 1000 nM

Cc1c(S(=O)(=O)Nc2ccc(C=O)cc2S(C)(=O)=O)sc2ccc(F)cc12
IC50 (Chymase [2]): > 1000 nM

COC(=O)c1ccc(NS(=O)(=O)c2sc3ccc(Cl)cc3c2C)c(S(C)(=O)=O)c1C
IC50 (Chymase [2]): 594 nM

Cc1c(S(=O)(=O)Nc2ccc(CO)cc2S(C)(=O)=O)sc2ccc(F)cc12
IC50 (Chymase [2]): 337 nM

Cc1c(S(=O)(=O)Nc2ccc(C(=O)O)cc2S(C)(=O)=O)sc2ccc(F)cc12
IC50 (Chymase [2]): > 1000 nM

COC(=O)c1ccc(NS(=O)(=O)c2sc3ccc(C)cc3c2C)c(S(C)(=O)=O)c1
IC50 (Chymase [2]): 325 nM

CCCSc1ccc(NS(=O)(=O)c2sc3ccc(Cl)cc3c2C)cc1
IC50 (Chymase [1]): No inhibition

CCCS(=O)(=O)c1ccc(NS(=O)(=O)c2sc3ccc(Cl)cc3c2C)cc1
IC50 (Chymase [2]): 10600 nM

Cc1c(S(=O)(=O)Nc2ccc([N+](=O)[O-])cc2)sc2ccc(Cl)cc12
IC50 (Chymase [1]): No inhibition

COC(=O)c1ccc(NS(=O)(=O)c2sc3ccc(Cl)cc3c2C)c(S(C)(=O)=O)c1
Stability (Rattus norvegicus): 93.9%
IC50 [3]: > 10000 nM
IC50 (Cathepsin G): > 10000 nM

COCc1ccc(NS(=O)(=O)c2sc3ccc(F)cc3c2C)c(S(C)(=O)=O)c1
IC50 (Chymase [2]): 192 nM

CC(=O)c1ccc(NS(=O)(=O)c2sc3ccc(F)cc3c2C)c(S(C)(=O)=O)c1
Stability (Rattus norvegicus): 96.2%
IC50 [3]: > 10000 nM
IC50 (Cathepsin G): > 10000 nM

COC(=O)c1ccc(NS(=O)(=O)c2sc3ccc(Cl)cc3c2C)c(C(=O)OC)c1
IC50 (Chymase [1]): No inhibition

COC(=O)c1ccc(NS(=O)(=O)c2sc3ccc(F)cc3c2C)c(S(C)(=O)=O)c1
Stability (Rattus norvegicus): 74.3%
IC50 [3]: > 10000 nM
IC50 (Cathepsin G): > 10000 nM
